Test results published in a compilation of properties of binary mixtures (doi:10.1016/j.molliq.2022.119221).

Assay: xn = mol fraction of the nth substance listed
Conditions: 100 kPa

OCCO + CCCC[n+]1ccn(C)c1.O=S(=O)([N-]S(=O)(=O)C(F)(F)F)C(F)(F)F
viscosity [mPa·s]
Conditions	293.15 K	298.15 K	303.15 K	308.15 K	313.15 K	318.15 K	323.15 K	328.15 K	333.15 K	338.15 K
x2 = 0.1	30.7	24.6	19.2	15.2	12.5	10.4	8.87	7.66	6.65	5.82
x2 = 0.2002	–	–	21.5	17.6	14.8	12.5	10.7	9.27	–	7.1
x2 = 0.2997	37.9	29.2	22.8	–	–	–	–	9.9	8.68	7.64
x2 = 0.4015	–	31.4	24.5	19.7	16.5	14.1	12.1	–	9.16	8.01
x2 = 0.4993	42	32.5	25.1	20.4	17.2	14.7	12.6	10.9	9.57	8.48
x2 = 0.6007	43	33.3	26.2	21.7	17.8	15	13	–	9.8	8.61
x2 = 0.7003	42	33.7	26.3	–	18.4	–	13.4	11.6	10.1	8.93
x2 = 0.7993	42.4	34.6	28.2	23.8	20.2	17.2	–	12.9	–	–
x2 = 0.9	48.7	39.8	32.8	27.3	23.1	19.7	–	–	12.9	11.4
